In experiment [1] the test system is apo B secretion in HepG2 cells. Kind of experiment: Inhibition of apo B secretion in the HepG2 human cell line (sandwich ELISA). The format is cell-based. The conditions noted are these: 24 hours incubation, culture supernatant, ELISA specific for human apo B, read-out: IC50 (concentration that produces a 50% inhibition of apo B secretion in the HepG2 cells). The procedure:
Analysis of the secretion of apo B in the HepG2 human cell line:
The activity of a compound according to the invention can be evaluated by measuring the inhibition of apo B secretion in HepG2 cells.
The HepG2 cells (ECACC—No. 85011430) are used as model in the study of the in vitro hepatic secretion of lipoproteins (Dixon J. and Ginsberg H.-J. Lipid. Res.—1993, 34:167-179).
The HepG2 cells are cultured in Dulbecco's modified Eagle's medium comprising 10% foetal calf serum (DMEM and FBS-Gibco) in 96-well plates under an atmosphere of 5% carbon dioxide for 24 hours (about 70% confluence).
The test compounds are dissolved at a concentration of 2 or 10 mM in dimethyl sulfoxide (DMSO). Serial dilutions (1:3.16) are made in DMSO and are added (1:200—Robot Multimek Beckman) to the growth medium (200 microlitres) and then finally incubated for 24 hours in the various wells containing the HepG2 cells.
The 24-hour culture supernatant diluted to 1:5 (phosphate-buffered saline: PBS comprising 1% bovine serum albumin) is tested according to a sandwich-ELISA method specific for human apo B.
The results are expressed in terms of IC50, i.e. the concentration that produces a 50% inhibition of apo B secretion in the HepG2 cells.

The target of experiment [2] is T1, microsomal triglyceride transfer protein (MTP) (Mesocricetus auratus, UniProt P55158).
T1 construct: The supernatant comprising the soluble MTP is dialysed; from tissue; host or cells: golden hamster liver microsomes, deoxycholate-solubilised
T1 sequence (P55158 19-895): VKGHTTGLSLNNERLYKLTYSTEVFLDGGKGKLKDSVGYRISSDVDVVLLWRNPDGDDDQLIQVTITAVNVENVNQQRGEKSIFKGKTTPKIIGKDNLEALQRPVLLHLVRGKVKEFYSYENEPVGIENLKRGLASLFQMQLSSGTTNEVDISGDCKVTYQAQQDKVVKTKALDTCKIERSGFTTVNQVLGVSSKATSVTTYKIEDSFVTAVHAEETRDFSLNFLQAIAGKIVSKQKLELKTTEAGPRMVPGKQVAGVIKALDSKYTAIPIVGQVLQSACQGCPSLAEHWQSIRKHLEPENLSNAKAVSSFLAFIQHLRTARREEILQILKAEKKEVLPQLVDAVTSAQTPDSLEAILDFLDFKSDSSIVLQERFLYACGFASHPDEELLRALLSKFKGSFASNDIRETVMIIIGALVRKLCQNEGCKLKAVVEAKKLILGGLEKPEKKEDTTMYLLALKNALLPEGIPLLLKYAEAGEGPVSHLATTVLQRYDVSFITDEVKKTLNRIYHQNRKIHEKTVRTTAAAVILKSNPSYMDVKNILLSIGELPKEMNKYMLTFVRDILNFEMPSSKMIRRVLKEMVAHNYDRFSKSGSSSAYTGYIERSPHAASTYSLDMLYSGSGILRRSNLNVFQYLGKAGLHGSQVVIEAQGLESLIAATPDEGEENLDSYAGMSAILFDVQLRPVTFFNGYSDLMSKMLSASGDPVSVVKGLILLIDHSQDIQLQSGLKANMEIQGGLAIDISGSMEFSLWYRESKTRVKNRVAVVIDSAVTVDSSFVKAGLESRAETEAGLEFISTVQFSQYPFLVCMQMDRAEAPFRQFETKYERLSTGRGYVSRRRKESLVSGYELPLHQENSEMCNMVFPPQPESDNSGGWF
T1 sequence (Q8R4U2 20-509 partner): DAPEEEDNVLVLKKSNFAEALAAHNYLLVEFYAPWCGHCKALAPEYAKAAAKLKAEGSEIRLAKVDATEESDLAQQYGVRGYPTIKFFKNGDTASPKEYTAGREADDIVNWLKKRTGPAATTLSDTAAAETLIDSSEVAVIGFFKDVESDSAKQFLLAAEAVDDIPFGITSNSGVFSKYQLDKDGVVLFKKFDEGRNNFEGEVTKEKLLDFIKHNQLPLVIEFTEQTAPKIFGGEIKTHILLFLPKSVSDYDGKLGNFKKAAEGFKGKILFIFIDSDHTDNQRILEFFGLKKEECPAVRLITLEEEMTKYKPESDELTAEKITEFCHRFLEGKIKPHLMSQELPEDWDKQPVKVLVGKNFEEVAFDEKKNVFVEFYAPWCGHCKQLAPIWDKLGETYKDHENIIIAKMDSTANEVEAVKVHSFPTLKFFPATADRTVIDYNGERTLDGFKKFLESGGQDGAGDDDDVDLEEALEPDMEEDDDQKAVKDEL
Kind of experiment: Inhibition of MTP activity: transfer of [3H]-triolein from donor liposomes to biotinylated LDL (SPA). The format is biochemical. Particulars: MTP from golden hamster liver microsomes; incubation 18-24 hours at 37° C.; read-out: IC50 (concentration that allows a 50% inhibition of MTP). The procedure: Analysis of the Inhibition of MTP Activity
The inhibition of the activity of microsomal triglyceride transfer protein (MTP) was tested by using the following operating protocol.
The inhibition of MTP activity with a compound can be quantified by observing the inhibition of the transfer of a labelled triglyceride, from a donor particle to an acceptor particle, in the presence of MTP. The procedure for the preparation of MTP is based on the method by Wetterau and Zilversmit (Biochem. Biophys. Acta (1986) 875: 610). A few grams of golden hamster liver are taken and then rinsed several times in a 250 mM sucrose solution at 0° C. All the following steps proceed at +4° C. A homogenate at a concentration of 50% in 250 mM sucrose is prepared using a Teflon mill and then centrifuged for 10 minutes at 10 000×g at +4° C. The supernatant is then centrifuged at 105 000×g for 75 minutes at +4° C. The supernatant is discarded and the microsomal pellet is taken up in 3 ml (per g of starting liver) of Tris/HCl 150 mM pH 8.0. 1 ml aliquot fractions are stored at −80° C. until the time of use.
After thawing a fraction of microsomes (1 ml), 12 ml of refrigerated Tris/HCl 50 mM, KCl 50 mM, MgCl2 5 mM pH 7.4 buffers and 1.2 ml of deoxycholate (0.54% in water) are added. After incubation for 30 minutes at +4° C. with gentle agitation, the suspension is centrifuged at 105 000×g for 75 minutes. The supernatant comprising the soluble MTP is dialysed against Tris/HCl 150 mM, NaCl 40 mM, EDTA 1 mM, 0.02% sodium azide pH 7.4 buffer (5 times one litre over 2-3 days). The MTP is stored at +4° C., is stable for at least 30 days and is used in unmodified form in the test.
The donor particles (liposomes) are prepared from 208 μl of L-phosphatidylcholine at a concentration of 10 mg/ml in chloroform, and 480 μl of [3H]-triolein at a concentration of 0.5 mCi/ml in toluene. After stirring, the solution is evaporated under nitrogen, taken up in 6 ml of Tris/HCl 50 mM, KCl 50 mM, MgCl2 5 mM pH 7.4 buffer and incubated in an ultrasound bath for 30 minutes at room temperature. The liposomes are stored at +4° C. and sonicated again for 10 minutes before each use.
The acceptor particles are biotinylated low density lipoproteins (LDL-biot). These particles are supplied by the company Amersham.
The reaction mixture is prepared in untreated ½ well white plates (Corning Costar) by addition, in the following order, of: 5 μl of HEPES 50 mM, NaCl 150 mM, BSA 0.1% (w/v), 0.05% sodium azide (w/v), pH 7.4 buffer; 5 μl of liposomes; 5 μl of LDL-biot; 5 μl of test products in DMSO; 5 μl of MTP. After incubation for 18-24 hours at 37° C., the reaction is stopped by adding 100 μl of Amersham SPA (Scintillation Proximity Assay) beads coupled to streptavidin, and the radioactivity is counted using a Top Count (Packard) at least one hour later. The inhibition of the transfer of the triglycerides with a compound is reflected by a reduction in the transferred radioactivity.
The results are expressed in terms of the IC50, i.e. the concentration that allows a 50% inhibition of MTP.

On to `CC(C)Cc1ccc(-c2ccccc2C(=O)Nc2ccc3c(c2)OC(F)(F)O3)cc1` [Example 57, 4′-isobutylbiphenyl-2-carboxylic acid (2,2-difluorobenzo[1,3]dioxol-5-yl)-amide], for which the IC50 in experiment [1] is 219 nM. Still for that read-out and setting: as for `CCNC(=O)OCC1COc2ccc(NC(=O)c3ccccc3-c3ccc(C(C)C)cc3)cc2O1` (stereo not drawn) [Example 21, 7-[(4′-isopropylbiphenyl-2-carbonyl)amino]-2,3-dihydrobenzo[1,4]dioxin-2-ylmethyl ethylcarbamate], the figure is 197 nM. With `O=C(Nc1ccc2c(c1)OC(F)(F)O2)c1cccc(Cl)c1-c1ccc(OC(F)(F)F)cc1` [Example 91], the IC50 stood at 223 nM in experiment [2] and 213 nM in experiment [1].

With `O=C(Nc1ccc2c(c1)OC(F)(F)O2)c1ccccc1-c1ccc(CCO)cc1` [Example 53, 4′-(2-hydroxyethyl)biphenyl-2-carboxylic acid (2,2-difluorobenzo[1,3]-dioxol-5-yl)amide], the IC50 in experiment [1] was 195 nM. As to `Cc1cccc(C(=O)Nc2ccc3c(c2)OC(F)(F)O3)c1-c1ccc(CCOCc2ccccc2)cc1` [Example 93, 4′-(2-benzyloxyethyl)-6-methylbiphenyl-2-carboxylic acid (2,2-difluorobenzo[1,3]dioxol-5-yl)amide], the values for the IC50 in experiment [2] and in experiment [1] were 61 nM and 65 nM, respectively. With `CCNC(=O)OCCc1ccc(-c2ccccc2C(=O)Nc2ccc3c(c2)OC(F)(F)O3)cc1` [Example 48, 5-(4′-ethylaminocarbonyloxyethylbiphen-2-ylcarbonylamino)-2,2-difluorobenzo[1,3]dioxole], the IC50 in experiment [2] amounted to 340 nM. Turning to `CC(C)c1ccc(-c2ccccc2C(=O)Nc2ccc3c(c2)OC(F)(F)O3)cc1` [Example 33, (4′-isopropylbiphen-2-yl)-N-(2,2-difluorobenzo[1,3]dioxol-5-yl)carboxamide], the IC50 in experiment [2] was 230 nM; in experiment [1], 68 nM. On to `CC(C)c1ccc(-c2c(Cl)cccc2C(=O)Nc2ccc3c(c2)OC(F)(F)O3)cc1` [Example 90], for which the results for the IC50 in experiment [2] and in experiment [1] were 44 nM and 30 nM, respectively.

`CCNC(=O)OCCc1ccc(-c2c(C)cccc2C(=O)Nc2ccc3c(c2)OC(F)(F)O3)cc1` [Example 98]: the IC50 in experiment [2] came to 312 nM.

Take `CC(C)=Cc1ccc(-c2ccccc2C(=O)Nc2ccc3c(c2)OC(F)(F)O3)cc1` [Example 69, 4′-(2-methylpropenyl)biphenyl-2-carboxylic acid (2,2-difluorobenzo[1,3]-dioxol-5-yl)amide]: in experiment [1], the IC50 came to 288 nM. The same measure, in the same setting: as for `CC(C)c1ccc(-c2ccccc2C(=O)Nc2ccc3c(c2)OCO3)cc1` [Example 41, 5-(4′-isopropylbiphen-2-ylcarbonylamino)benzo[1,3]dioxole], the figure is 129 nM. For the compound `COc1cccc(C(=O)Nc2ccc3c(c2)OC(F)(F)O3)c1-c1ccc(OC(F)(F)F)cc1` [Example 94], the IC50 in experiment [2] was found to be 193 nM; in experiment [1] it was 66 nM. On to `O=C(Nc1ccc2c(c1)OC(F)(F)O2)c1ccccc1-c1ccc(OC(F)(F)F)cc1` [Example 40, 5-(4′-trifluoromethoxybiphen-2-ylcarbonylamino)-2,2-difluorobenzo[1,3]-dioxole], for which, in experiment [2], the IC50 is 220 nM. Take `O=C(Nc1ccc2c(c1)OCO2)c1ccccc1-c1ccc(OC(F)(F)F)cc1` [Example 51, 4′-trifluoromethoxybiphenyl-2-carboxylic acid benzo[1,3]dioxol-5-ylamide]: the IC50 in experiment [1] amounted to 72 nM. Same read-out and setting: the same measure for `COCC1COc2ccc(NC(=O)c3ccccc3-c3ccc(C(C)C)cc3)cc2O1` (stereo not drawn) [Example 20, 4′-isopropylbiphenyl-2-carboxylic acid (3-methoxymethyl-2,3-dihydrobenzo[1,4]dioxin-6-yl)amide]: 65 nM.

With `Cc1cccc(-c2ccc(OC(F)(F)F)cc2)c1C(=O)Nc1ccc2c(c1)OC(F)(F)O2` [Example 49, 5-(4′-trifluoromethoxy-3-methylbiphen-2-ylcarbonylamino)-2,2-difluorobenzo[1,3]dioxole], the IC50 was 136 nM in experiment [2] and 302 nM in experiment [1].

On to `CCc1ccc(-c2cccc(C)c2C(=O)Nc2ccc3c(c2)OC(F)(F)O3)cc1` [Example 42, 5-(4′-ethyl-3-methylbiphen-2-ylcarbonylamino)-2,2-difluorobenzo[1,3]-dioxole], for which the IC50 in experiment [2] amounted to 270 nM. As to `CCc1ccc(-c2ccccc2C(=O)Nc2ccc3c(c2)OC(F)(F)O3)cc1` [Example 32, 4′-ethylbiphenyl-2-carboxylic acid (2,2-difluorobenzo[1,3]dioxol-5-yl)-amide], the IC50 in experiment [1] is 97 nM.

The values are drawn from patent US20060058372A1, “N-Benzodioxolyl, n-benzodioxanyl and n-benzodioxepinyl arylcarboxamide derivatives and pharmaceutical compositions comprising them” (priority 2002, published 2006).
